Tests used:
Conditions in all cases: 72 h
HepG2 [1] = experiment: relative viability EC50 (midpoint between 100% and the lowest measured viability); higher = less toxic
Vero E6 [2] = experiment: as above
Calu-3 [3] = experiment: as above
U2OS [4] = experiment: as above
HepG2 [5] = experiment: cell viability relative to DMSO; higher = less toxic
Vero E6 [6] = experiment: as above
Calu-3 [7] = experiment: as above
U2OS [8] = experiment: as above
HepG2 [9] = experiment: drug sensitivity score (DSS) for viability; higher = more toxic; extreme values may be limits of the assay
Vero E6 [10] = experiment: as above
Calu-3 [11] = experiment: as above
U2OS [12] = experiment: as above
Caco-2 [13] = experiment: cell viability relative to DMSO; higher = less toxic
Caco-2 [14] = experiment: drug sensitivity score (DSS) for viability; higher = more toxic; extreme values may be limits of the assay

| Structure (SMILES) | relative viability EC50 (HepG2 [1]) | relative viability EC50 (Vero E6 [2]) | relative viability EC50 (Calu-3 [3]) | relative viability EC50 (U2OS [4]) | cell viability (HepG2 [5]; 1 nM) | cell viability (HepG2 [5]; 10 nM) | cell viability (HepG2 [5]; 100 nM) | cell viability (HepG2 [5]; 1000 nM) | cell viability (HepG2 [5]; 10000 nM) | cell viability (Vero E6 [6]; 1 nM) | cell viability (Vero E6 [6]; 10 nM) | cell viability (Vero E6 [6]; 100 nM) | cell viability (Vero E6 [6]; 1000 nM) | cell viability (Vero E6 [6]; 10000 nM) | cell viability (Calu-3 [7]; 1 nM) | cell viability (Calu-3 [7]; 10 nM) | cell viability (Calu-3 [7]; 100 nM) | cell viability (Calu-3 [7]; 1000 nM) | cell viability (Calu-3 [7]; 10000 nM) | cell viability (U2OS [8]; 1 nM) | cell viability (U2OS [8]; 10 nM) | cell viability (U2OS [8]; 100 nM) | cell viability (U2OS [8]; 1000 nM) | cell viability (U2OS [8]; 10000 nM) | drug sensitivity score (HepG2 [9]) | drug sensitivity score (Vero E6 [10]) | drug sensitivity score (Calu-3 [11]) | drug sensitivity score (U2OS [12]) | cell viability (Caco-2 [13]; 1 nM) | cell viability (Caco-2 [13]; 10 nM) | cell viability (Caco-2 [13]; 100 nM) | cell viability (Caco-2 [13]; 1000 nM) | cell viability (Caco-2 [13]; 10000 nM) | drug sensitivity score (Caco-2 [14]) |
| --- | --- | --- | --- | --- | --- | --- | --- | --- | --- | --- | --- | --- | --- | --- | --- | --- | --- | --- | --- | --- | --- | --- | --- | --- | --- | --- | --- | --- | --- | --- | --- | --- | --- | --- |
| CC(C)c1cc2c(cc1S(=O)(=O)O)[C@@]1(C)CCC[C@@](C)(C(=O)O)[C@@H]1CC2 [ecabet] | > 10 µM | > 10 µM | > 10 µM | > 10 µM | 105% | 110% | 93.8% | 112% | 104% | 96.4% | 96.1% | 96.9% | 96.9% | 107% | 109% | 107% | 112% | 110% | 99.5% | 96.7% | 93.7% | 99.1% | 95% | 103% | 0 | 0 | 0 | 0 | – | – | – | – | – | – |
| N.N.[Cl][Pt][Cl] [cisplatin] | – | – | – | – | – | – | – | – | – | – | – | – | – | – | – | – | – | – | – | – | – | – | – | – | 0 | 0 | 0.2 | 0 | – | – | – | – | – | – |
| COc1ccc(CCCO[C@@H](Cn2ccnc2)c2ccc(OC)cc2)cc1 | 3.59 µM | – | – | 3.1 µM | 101% | 104% | 95.4% | 106% | 34% | 94.5% | 104% | 96.5% | 98% | 50.1% | – | – | – | – | – | 97.4% | 96.7% | 99.3% | 99.4% | 35.9% | 3.2 | 2.9 | – | 3.6 | 93.4% | 95% | 100% | 93.5% | 52.6% | 3.6 |
| N#Cc1c(N)nc(SCc2ncc[nH]2)c(C#N)c1-c1ccc(O)cc1 [LUF-5834] | > 10 µM | – | – | – | 102% | 115% | 103% | 105% | 98.6% | – | – | – | – | – | – | – | – | – | – | – | – | – | – | – | 0 | – | – | – | – | – | – | – | – | – |
| N[C@H](CO)C(=O)O [D-serine] | – | – | – | – | – | – | – | – | – | – | – | – | – | – | – | – | – | – | – | – | – | – | – | – | 0 | 0 | 0 | 0 | – | – | – | – | – | – |
| N=C(N)NC(=O)c1nc(Cl)c(N)nc1N [amiloride] | – | – | – | – | – | – | – | – | – | – | – | – | – | – | – | – | – | – | – | – | – | – | – | – | 0 | 0 | 0 | 0 | – | – | – | – | – | – |
| OCCNC1CCCc2c1[nH]c1ccc(-c3ccccc3)cc21 (configuration not stated) [casin] | – | > 10 µM | – | > 10 µM | 94.7% | 97.6% | 87.5% | 94.7% | 52.4% | 102% | 106% | 106% | 98.9% | 77.7% | 96.3% | 97.4% | 97.1% | 106% | 69.1% | 107% | 102% | 105% | 102% | 79% | 3.4 | 0.9 | 1.1 | 0.5 | 106% | 97.4% | 99.4% | 96.3% | 69.8% | 1.9 |
| C[C@]12CC[C@@H]3c4ccc(OC(=O)c5ccccc5)cc4CC[C@H]3[C@@H]1CC[C@@H]2O [estradiol-benzoate] | > 10 µM | – | > 10 µM | > 10 µM | 104% | 118% | 103% | 105% | 97.8% | – | – | – | – | – | 101% | 96.4% | 98.6% | 94.3% | 88.6% | 108% | 105% | 106% | 103% | 99.8% | 0 | – | 0 | 0 | – | – | – | – | – | – |
| O[C@@H](COc1cccc2ncccc12)CN1CCN([C@@H]2c3ccccc3[C@@H]3[C@H](c4ccccc42)C3(F)F)CC1 [zosuquidar] | – | – | > 10 µM | > 10 µM | 104% | 98.8% | 95.6% | 92.4% | 63.1% | 104% | 105% | 98.7% | 98.5% | 72.6% | 102% | 108% | 91.5% | 96.1% | 85.7% | 99% | 99.4% | 99.4% | 98.2% | 76.2% | 3 | 1.3 | 0.1 | 1.1 | 99.5% | 102% | 87.8% | 90.2% | 55.2% | 3.6 |
| C[C@H](NC(=O)C(C)(C)Oc1ccc(C(F)(F)F)cn1)[C@@H](Cc1ccc(Cl)cc1)c1cccc(C#N)c1 [taranabant] | – | > 10 µM | > 10 µM | > 10 µM | 105% | 106% | 111% | 103% | 72.4% | 103% | 96.5% | 99.6% | 97.8% | 85.5% | 96.5% | 95.5% | 94.4% | 107% | 86.6% | 100% | 95.8% | 96.3% | 95.2% | 90.9% | 1 | 0.4 | 0 | 0 | 97.3% | 108% | 105% | 94.4% | 73.4% | 1.9 |
| CCC[C@@H]1C[C@@H](C(=O)N[C@@H]([C@H]2O[C@H](SC)[C@H](OP(=O)(O)O)[C@@H](O)[C@H]2O)[C@H](C)Cl)N(C)C1 [Clindamycin phosphate] | – | – | – | – | – | – | – | – | – | – | – | – | – | – | – | – | – | – | – | – | – | – | – | – | 0 | 0 | 0 | 0 | – | – | – | – | – | – |
| Cc1cc(I)ccc1Nc1c(C(=O)NOCC2CC2)cc(F)c(F)c1F | 0.814 µM | – | 1.26 µM | – | 88.7% | 107% | 94% | 55.5% | 21.1% | 89.6% | 100% | 90.4% | 77% | 52.6% | 97.2% | 100% | 103% | 80.3% | 45.1% | 100% | 97.1% | 99.8% | 89.6% | 74.7% | 9.7 | 5.2 | 5.7 | 2.3 | 93.3% | 99.5% | 98.3% | 75% | 54.8% | 5.2 |
| C=CC(C)(C)c1cc(/C=C/C(=O)c2ccc(O)cc2)c(OC)cc1O [licochalcone-A] | – | > 10 µM | > 10 µM | > 10 µM | 99.9% | 100% | 74.4% | 99.2% | 78.4% | 103% | 101% | 90.2% | 98% | 102% | 96.1% | 100% | 106% | 98.1% | 91.7% | 95.7% | 96.5% | 100% | 95.8% | 88.7% | 1.5 | 0 | 0 | 0.1 | 92.4% | 83% | 105% | 88% | 70.8% | 2.8 |
| CCOC(=O)[C@H](CCc1ccccc1)N[C@@H](C)C(=O)N1[C@H](C(=O)O)C[C@@H]2CCC[C@@H]21 [ramipril] | – | – | – | – | – | – | – | – | – | – | – | – | – | – | – | – | – | – | – | – | – | – | – | – | 0 | 0 | 0 | 0 | – | – | – | – | – | – |
| CC(C)c1noc(N2CCC(COc3ccc(-c4ccc(S(C)(=O)=O)cc4)nc3)CC2)n1 | – | > 10 µM | > 10 µM | > 10 µM | 97.1% | 106% | 109% | 97.3% | 50.9% | 98% | 100% | 98.8% | 89.3% | 103% | 96.4% | 101% | 92.4% | 94.4% | 106% | 99.3% | 94.1% | 97.6% | 100% | 101% | 2.9 | 0 | 0 | 0 | 92.5% | 93.5% | 101% | 95.6% | 72.5% | 1.8 |
| Cc1cc(C)nc(NS(=O)(=O)c2ccc(N)cc2)n1 [sulfamethazine] | – | – | – | – | – | – | – | – | – | – | – | – | – | – | – | – | – | – | – | – | – | – | – | – | 0 | 0 | 0 | 0 | – | – | – | – | – | – |
| C[C@H](N)[C@H](O)c1cccc(O)c1 [metaraminol] | > 10 µM | > 10 µM | > 10 µM | – | 97.9% | 102% | 100% | 97.2% | 103% | 105% | 101% | 108% | 97.5% | 102% | 90.4% | 96.8% | 98.7% | 99.9% | 91.9% | – | – | – | – | – | 0 | 0 | 0 | – | – | – | – | – | – | – |

Reference: the supplement of paper PMC13380429
